Assays:
[1] = system: HCV replicon; experiment: Anti-HCV replicon assay (EC50, luciferase readout); assay type: cell-based; details: Hepatitis C virus, 72 h; human hepatoma Huh-7 cell line harbouring a HCV replicon; 3 days; luciferase; read-out: EC50
Description: (§1) The anti-HCV activity of the pyrido[3,2-d]pyrimidine derivatives of this invention was tested in a human hepatoma Huh-7 cell line harbouring a HCV replicon. The assay comprised the following steps:
(§2) Step 1: Compound Preparation and Serial Dilution
(§3) • 1. for water soluble pyrido[3,2-d]pyrimidine derivatives, a volume of 500 μL of solution in cell media (DMEM, 10% FBS, P/S, L-Glutamine) was prepared with a concentration being twice the concentration of the starting final serial dilution concentration. A volume of 150 μL of the solution was added to the pre-specified wells in column 1 of a 96-well cell culture plate (PerkinElmer, white plate, cat. #6005181, for EC50 assay; black plate, cat. #6005182 for CC50 assay). The rest of the plate, columns 2-12, was filled with 100 μL of cell media. The plate was then placed on a Precision 2000 Workstation to start the serial dilution. Compounds were diluted three times each step from column 1 to column 10. Column 11 was used as a blank control (no compound added). • 2. for pyrido[3,2-d]pyrimidine derivatives requiring DMSO to dissolve, serial dilution is performed in 50% DMSO in a 384-well plate. A solution containing a compound at 100-fold concentration of the starting final serial dilution concentration was prepared in 50% DMSO and added to the pre-specified wells in column 1 of a polypropylene 384-well plate. The plate was then placed on a Precision 2000 Workstation to start the serial dilution. After the serial dilution, a volume of 2 μL of the solution was transferred from the 384-well plate to a 96-well cell culture plate containing 100 μL of cell media on a Biomek FX Workstation. The DMSO concentration in the final assay condition was 0.5% after cells are added to the plate and the total volume in each well is brought to 200 μL. Step 2: to each well of the serial dilution plate prepared above, 100 μL of cell media containing 6000 suspended Huh-7 HCV replicon cells was added with a Multidrop workstation. The plates were incubated for 3 days at 37° C. with 5% CO2. Step 3: Detection: • a) for the EC50 assay, the media in a 96-well cell culture plate was aspirated with a Biotek EL405 plate-washer. A volume of 200 μL of a solution containing a 1:1 mixture of cell-lysis buffer (Promega, Luciferase Cell Culture Lysis 5X Reagent, cat. #E1531) and luciferase substrate solution (Promega, Luciferase Assay, cat. # E4550) was added to each well of the plate with Multidrop. The plate was incubated for 30 minutes at room temperature before the luminescence signal was measured with a TopCount plate-reader. • b) for the CC50 assay, a volume of 100 μL of pre-mixed CellTiter-Glo (Promega, cat. # G7572) solution is added directly to the cell culture in each well of the plate and the luminescence signal is measured with a TopCount plate-reader after 10 minutes of incubation at room temperature.
(§4) Results in table 13 are expressed by the following data: • the 50% effective concentration (EC50), i.e. the concentration that protects 50% of the cell monolayer from virus-induced cythopathic effect, and • the 50% cytostatic concentration (CC50), i.e. the concentration that results in 50% inhibition of cell growth.

[2] = CC50 assay (CellTiter-Glo) in Huh-7 HCV replicon cells; assay type: cell-based, human; details: human, 50% cytostatic concentration
Description: as §1, §2, §3, §4

CCOc1nc(N)nc2ccc(-c3ccc(C(=O)NCC(C)C)cc3)nc12 [Example 56, 4-(2-Amino-4-ethoxy-pyrido[3,2-d]pyrimidin-6-yl)-N-isobutyl-benzamide]
EC50 [1]: 0.3 to 1 µM
CC50 at 3 days [2]: > 20 µM

CCCCNC(=O)c1ccc(-c2ccc3nc(N)nc(OCC)c3n2)cc1 [Example 57, 4-(2-Amino-4-ethoxy-pyrido[3,2-d]pyrimidin-6-yl)-N-butyl-benzamide]
EC50 [1]: 0.3 to 1 µM
CC50 at 3 days [2]: > 20 µM

CCOc1nc(N)nc2ccc(-c3ccc(C(=O)NC(C)(C)C)cc3)nc12 [Example 58, 4-(2-Amino-4-ethoxy-pyrido[3,2-d]pyrimidin-6-yl)-N-tert-butyl-benzamide]
EC50 [1]: > 1 µM
CC50 at 3 days [2]: > 20 µM

CCOc1nc(N)nc2ccc(-c3ccc(C(=O)NC4CCCC4)cc3)nc12 [Example 59, 4-(2-Amino-4-ethoxy-pyrido[3,2-d]pyrimidin-6-yl)-N-cyclopentyl-benzamide]
EC50 [1]: 0.3 to 1 µM
CC50 at 3 days [2]: > 20 µM

CCOc1nc(N)nc2ccc(-c3ccc(C(=O)NOC)cc3)nc12 [Example 60, 4-(2-Amino-4-ethoxy-pyrido[3,2-d]pyrimidin-6-yl)-N-methoxy-benzamide]
EC50 [1]: > 1 µM
CC50 at 3 days [2]: > 20 µM

CCOc1nc(N)nc2ccc(-c3ccc(C(=O)NC(C)C)cc3)nc12 [Example 61, 4-(2-Amino-4-ethoxy-pyrido[3,2-d]pyrimidin-6-yl)-N-isopropyl-benzamide]
EC50 [1]: 0.3 to 1 µM
CC50 at 3 days [2]: > 20 µM

CCOc1nc(N)nc2ccc(-c3ccc(C(=O)NC4CC4)c(Cl)c3)nc12 [Example 62, 4-(2-Amino-4-ethoxy-pyrido[3,2-d]pyrimidin-6-yl)-2-chloro-N-cyclopropyl-benzamide]
EC50 [1]: > 1 µM
CC50 at 3 days [2]: > 20 µM

CCOc1nc(N)nc2ccc(-c3ccc(C(=O)NCCN(C)C)cc3)nc12 [Example 63, 4-(2-Amino-4-ethoxy-pyrido[3,2-d]pyrimidin-6-yl)-N-(2-dimethylamino-ethyl)-benzamide]
EC50 [1]: < 0.3 µM
CC50 at 3 days [2]: 10 to 20 µM

CC(C)CNC(=O)c1ccc(-c2ccc3nc(N)nc(OC(C)C)c3n2)cc1 [Example 64, 4-(2-Amino-4-isopropoxy-pyrido[3,2-d]pyrimidin-6-yl)-N-isobutyl-benzamide]
EC50 [1]: 0.3 to 1 µM
CC50 at 3 days [2]: > 20 µM

CC(C)Oc1nc(N)nc2ccc(-c3ccc(C(=O)NC4CCCCC4)cc3)nc12 [Example 65, 4-(2-Amino-4-isopropoxy-pyrido[3,2-d]pyrimidin-6-yl)-N-cyclohexyl-benzamide]
EC50 [1]: > 1 µM
CC50 at 3 days [2]: > 20 µM

CCCCNC(=O)c1ccc(-c2ccc3nc(N)nc(OC(C)C)c3n2)cc1 [Example 66, 4-(2-Amino-4-isopropoxy-pyrido[3,2-d]pyrimidin-6-yl)-N-n-butyl-benzamide]
EC50 [1]: 0.3 to 1 µM
CC50 at 3 days [2]: > 20 µM

CC(C)Oc1nc(N)nc2ccc(-c3ccc(C(=O)NC(C)(C)C)cc3)nc12 [Example 67, 4-(2-Amino-4-isopropoxy-pyrido[3,2-d]pyrimidin-6-yl)-N-tert-butyl-benzamide]
EC50 [1]: 0.3 to 1 µM
CC50 at 3 days [2]: > 20 µM

CC(C)Oc1nc(N)nc2ccc(-c3ccc(C(=O)NC4CCCC4)cc3)nc12 [Example 68, 4-(2-Amino-4-isopropoxy-pyrido[3,2-d]pyrimidin-6-yl)-N-cyclopentyl-benzamide]
EC50 [1]: 0.3 to 1 µM
CC50 at 3 days [2]: > 20 µM

CC(C)NC(=O)c1ccc(-c2ccc3nc(N)nc(OC(C)C)c3n2)cc1 [Example 69, 4-(2-Amino-4-isopropoxy-pyrido[3,2-d]pyrimidin-6-yl)-N-isopropyl-benzamide]
EC50 [1]: < 0.3 µM
CC50 at 3 days [2]: > 20 µM

CONC(=O)c1ccc(-c2ccc3nc(N)nc(OC(C)C)c3n2)cc1 [Example 70, 4-[2-Amino-4-isopropoxy-pyrido[3,2-d]pyrimidin-6-yl]-N-methoxy-benzamide]
EC50 [1]: < 0.3 µM
CC50 at 3 days [2]: > 20 µM

CNC(=O)c1ccc(-c2ccc3nc(N)nc(OC(C)C)c3n2)cc1Cl [Example 71, 4-(2-Amino-4-isopropoxy-pyrido[3,2-d]pyrimidin-6-yl)-2-chloro-N-methyl-benzamide]
EC50 [1]: > 1 µM
CC50 at 3 days [2]: > 20 µM

CC(C)Oc1nc(N)nc2ccc(-c3ccc(C(=O)NC4CC4)c(Cl)c3)nc12 [Example 72, 4-(2-Amino-4-isopropoxy-pyrido[3,2-d]pyrimidin-6-yl)-2-chloro-N-cyclopropyl-benzamide]
EC50 [1]: > 1 µM
CC50 at 3 days [2]: > 20 µM

CC(C)Oc1nc(N)nc2ccc(-c3ccc(C(=O)NC4CC4)cc3)nc12 [Example 73, 4-(2-Amino-4-isopropoxy-pyrido[3,2-d]pyrimidin-6-yl)-N-cyclopropyl-benzamide]
EC50 [1]: < 0.3 µM
CC50 at 3 days [2]: > 20 µM

COc1nc(N)nc2ccc(-c3ccc(C(=O)NC4CC4)cc3)nc12 [Example 74, 4-(2-Amino-4-methoxy-pyrido[3,2-d]pyrimidin-6-yl)-N-cyclopropyl-benzamide]
EC50 [1]: 0.3 to 1 µM
CC50 at 3 days [2]: 10 to 20 µM

COCCOc1nc(N)nc2ccc(-c3ccc(C(=O)NC(C)C)cc3)nc12 [Example 75, 4-[2-Amino-4-(2-methoxy-ethoxy)-pyrido[3,2-d]pyrimidin-6-yl]-N-isopropyl-benzamide]
EC50 [1]: 0.3 to 1 µM
CC50 at 3 days [2]: > 20 µM

COCCOc1nc(N)nc2ccc(-c3ccc(C(=O)NOC)cc3)nc12 [Example 76, 4-[2-Amino-4-(2-methoxy-ethoxy)-pyrido[3,2-d]pyrimidin-6-yl]-N-methoxy-benzamide]
EC50 [1]: 0.3 to 1 µM
CC50 at 3 days [2]: > 20 µM

CC(C)N1CCC(NC(=O)c2ccc(-c3ccc4nc(N)nc(O[C@H]5CCOC5)c4n3)cc2)CC1 [Example 77, 4-[2-Amino-4-(tetrahydro-furan-3-yloxy)-pyrido[3,2-d]pyrimidin-6-yl]-N-(1-isopropyl-piperidin-4-yl)-benzamide]
EC50 [1]: > 1 µM
CC50 at 3 days [2]: > 20 µM

CN1CCCC1CCNC(=O)c1ccc(-c2ccc3nc(N)nc(O[C@H]4CCOC4)c3n2)cc1 (stereo partly shown) [Example 78, 4-[2-Amino-4-(tetrahydro-furan-3-yloxy)-pyrido[3,2-d]pyrimidin-6-yl]-N-[2-(1-methyl-pyrrolidin-2-yl)-ethyl]-benzamide]
EC50 [1]: > 1 µM
CC50 at 3 days [2]: > 20 µM

Nc1nc(O[C@H]2CCOC2)c2nc(-c3ccc(C(=O)NCCCN4CCCC4)cc3)ccc2n1 [Example 79, 4-[2-Amino-4-(tetrahydro-furan-3-yloxy)-pyrido[3,2-d]pyrimidin-6-yl]-N-(3-pyrrolidin-1-yl-propyl)-benzamide]
EC50 [1]: 0.3 to 1 µM
CC50 at 3 days [2]: > 20 µM

CC(C)(CN1CCCC1)NC(=O)c1ccc(-c2ccc3nc(N)nc(O[C@H]4CCOC4)c3n2)cc1 [Example 80, 4-[2-Amino-4-(tetrahydro-furan-3-yloxy)-pyrido[3,2-d]pyrimidin-6-yl]-N-(1,1-dimethyl-2-pyrrolidin-1-yl-ethyl)-benzamide]
EC50 [1]: < 0.3 µM
CC50 at 3 days [2]: 10 to 20 µM

CC(C)(CN1CCOCC1)NC(=O)c1ccc(-c2ccc3nc(N)nc(O[C@H]4CCOC4)c3n2)cc1 [Example 81, 4-[2-Amino-4-(tetrahydro-furan-3-yloxy)-pyrido[3,2-d]pyrimidin-6-yl]-N-(1,1-dimethyl-2-morpholin-4-yl-ethyl)-benzamide]
EC50 [1]: < 0.3 µM
CC50 at 3 days [2]: > 20 µM

Nc1nc(O[C@H]2CCOC2)c2nc(-c3ccc(C(=O)NCC(F)(F)F)cc3)ccc2n1 [Example 82, 4-[2-Amino-4-(tetrahydro-furan-3-yloxy)-pyrido[3,2-d]pyrimidin-6-yl]-N-(2,2,2-trifluoro-ethyl)-benzamide]
EC50 [1]: < 0.3 µM
CC50 at 3 days [2]: 10 to 20 µM

Nc1nc(O[C@H]2CCOC2)c2nc(-c3ccc(C(=O)NCCN4CCCC4)cc3)ccc2n1 [Example 83, 4-[2-Amino-4-(tetrahydro-furan-3-yloxy)-pyrido[3,2-d]pyrimidin-6-yl]-N-(2-pyrrolidin-1-yl-ethyl)-benzamide]
EC50 [1]: < 0.3 µM
CC50 at 3 days [2]: > 20 µM

Nc1nc(O[C@H]2CCOC2)c2nc(-c3ccc(C(=O)NCCN4CCOCC4)cc3)ccc2n1 [Example 84, 4-[2-Amino-4-(tetrahydro-furan-3-yloxy)-pyrido[3,2-d]pyrimidin-6-yl]-N-(2-morpholin-4-yl-ethyl)-benzamide]
EC50 [1]: < 0.3 µM
CC50 at 3 days [2]: > 20 µM
